Test systems include ACHN renal; CCRF-CEM leukemia; LOX IMVI melanoma; NCI-H23 lung; NCI-H460 lung; NCI/ADR-RES ovarian; SF-268 CNS; SF-539 CNS; SK-MEL-28 melanoma; SW-620 colon.
Holding throughout (assay): NCI anticancer screen, dose series, 48 h

Each structure is given as a SMILES string.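 Five concentrations, 48 hours, 96-well plates. GI50: concentration for 50% inhibition of growth. TGI is the concentration that stops growth completely.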

`Fc1cc(F)c(F)c(S)c1F`: the TGI in the experiment on ACHN renal is > 100 µM; with CCRF-CEM leukemia it was > 100 µM; with LOX IMVI melanoma it was > 100 µM; with NCI-H23 lung, > 100 µM; with NCI-H460 lung, > 100 µM; in the experiment with NCI/ADR-RES ovarian, 38.6 µM. Moreover, the TGI with SF-268 CNS, in the experiment on SF-539 CNS, in the experiment on SK-MEL-28 melanoma and in the experiment on SW-620 colon was > 100 µM each time.
In the case of `CCc1ccccc1NC(=O)C(C#N)C1=C(Cl)C(=O)c2ccccc2C1=O` (stereo unspecified), the TGI was 29.9 µM in the experiment on ACHN renal; > 100 µM in the experiment with CCRF-CEM leukemia; 26.9 µM in the experiment on LOX IMVI melanoma; 29.5 µM in the experiment on NCI-H23 lung; 40.6 µM with NCI-H460 lung; 34.2 µM with NCI/ADR-RES ovarian. Also, the TGI with SF-268 CNS was found to be 49.8 µM; with SF-539 CNS, 37.2 µM; in the experiment on SK-MEL-28 melanoma it was 36.4 µM; with SW-620 colon, 44 µM.
For `OCc1ccc(-c2csc(-c3ccc(CO)o3)c2)o1`, the GI50 with ACHN renal is 43.9 µM; with CCRF-CEM leukemia, 31.1 µM; with LOX IMVI melanoma it was 66.5 µM; in the experiment with NCI-H23 lung it was 34.9 µM; in the experiment on NCI-H460 lung, 9.75 µM; in the experiment with NCI/ADR-RES ovarian, 26.9 µM. The GI50 is 71.9 µM with SF-268 CNS, 99.7 µM in the experiment with SF-539 CNS, 34.2 µM with SK-MEL-28 melanoma and 35.9 µM in the experiment with SW-620 colon. Also, the TGI with ACHN renal, in the experiment on CCRF-CEM leukemia, in the experiment with LOX IMVI melanoma, with NCI-H23 lung, with NCI-H460 lung and in the experiment on NCI/ADR-RES ovarian was > 100 µM each time. Moreover, the TGI in the experiment on SF-268 CNS, in the experiment on SF-539 CNS, in the experiment on SK-MEL-28 melanoma and in the experiment on SW-620 colon was > 100 µM each time.
In the case of `N#CC1C[C@@H]2CC3(CCC2CN1C(=O)c1ccccc1)OCCO3` (stereo partly specified), the TGI with ACHN renal, in the experiment with CCRF-CEM leukemia, in the experiment with LOX IMVI melanoma, with NCI-H23 lung, in the experiment with NCI-H460 lung and in the experiment on NCI/ADR-RES ovarian was > 100 µM throughout. The TGI in the experiment with SF-268 CNS, in the experiment with SF-539 CNS, in the experiment with SK-MEL-28 melanoma and in the experiment on SW-620 colon was > 100 µM in each case. In addition, the GI50 in the experiment on NCI/ADR-RES ovarian was > 100 µM.
Take `NC(=O)c1cccc2c(N[C@H](CN3CCC3)c3ccc(Cl)c(C(F)(F)F)c3)ncnc12`: the GI50 was 1.38 µM in the experiment with ACHN renal; 0.871 µM in the experiment with CCRF-CEM leukemia; 2.73 µM with LOX IMVI melanoma; 3.08 µM in the experiment on NCI-H23 lung; 0.739 µM in the experiment on NCI-H460 lung; 2.52 µM in the experiment on NCI/ADR-RES ovarian. Also, the GI50 in the experiment with SF-268 CNS is 1.09 µM; in the experiment on SF-539 CNS, 0.154 µM; with SK-MEL-28 melanoma, 1.18 µM; with SW-620 colon, 3.43 µM. Moreover, the TGI was found to be 13.5 µM with ACHN renal; 12 µM with CCRF-CEM leukemia; 14.7 µM in the experiment with LOX IMVI melanoma; 17 µM in the experiment with NCI-H23 lung; 12.4 µM with NCI-H460 lung; 14.4 µM in the experiment on NCI/ADR-RES ovarian. For the same molecule, the TGI worked out at 12.9 µM in the experiment on SF-268 CNS, 1.71 µM in the experiment on SF-539 CNS, 4.13 µM in the experiment on SK-MEL-28 melanoma and 16.3 µM in the experiment with SW-620 colon.
With `O=C([O][Hg][c]1ccccc1)c1ccccc1`, the GI50 in the experiment with ACHN renal is 1.57 µM; in the experiment on CCRF-CEM leukemia it was 0.324 µM; in the experiment with LOX IMVI melanoma, 1.38 µM; in the experiment with NCI-H23 lung it was 2.05 µM; in the experiment on NCI-H460 lung it was 2.6 µM; in the experiment on NCI/ADR-RES ovarian it was 3.32 µM. For the same molecule, the GI50 was 1.89 µM with SF-268 CNS, 1.58 µM in the experiment on SF-539 CNS, 1.45 µM with SK-MEL-28 melanoma and 0.943 µM with SW-620 colon. Besides, the TGI in the experiment with ACHN renal is 2.99 µM; in the experiment on CCRF-CEM leukemia it was 2.24 µM; with LOX IMVI melanoma, 3.05 µM; in the experiment with NCI-H23 lung it was 4.84 µM; with NCI-H460 lung it was 9.27 µM; in the experiment on NCI/ADR-RES ovarian, > 27.4 µM. In addition, the TGI in the experiment with SF-268 CNS came out at 4.78 µM; in the experiment on SF-539 CNS, 3.26 µM; with SK-MEL-28 melanoma it was 2.93 µM; in the experiment on SW-620 colon, 2.63 µM.
As to `O=C(c1ccccc1)C(Cl)C(Cl)c1ccccc1` (stereo unspecified), the GI50 with ACHN renal was 2.21 µM; in the experiment with CCRF-CEM leukemia, 1.67 µM; with LOX IMVI melanoma, 1.43 µM; with NCI-H23 lung it was 3.27 µM; with NCI-H460 lung it was 6.66 µM; with NCI/ADR-RES ovarian, 2.44 µM. The GI50 is 4.71 µM in the experiment with SF-268 CNS, 3.01 µM in the experiment on SF-539 CNS, 2.47 µM in the experiment on SK-MEL-28 melanoma and 1.41 µM in the experiment on SW-620 colon. The TGI is 5.23 µM in the experiment with ACHN renal; 6.93 µM in the experiment on CCRF-CEM leukemia; 2.82 µM with LOX IMVI melanoma; 12.8 µM in the experiment with NCI-H23 lung; 22.5 µM in the experiment with NCI-H460 lung; 7.35 µM in the experiment on NCI/ADR-RES ovarian. In addition, the TGI with SF-268 CNS was 17.3 µM; in the experiment with SF-539 CNS, 10.2 µM; in the experiment on SK-MEL-28 melanoma, 6.46 µM; in the experiment on SW-620 colon, 3.36 µM.
For `Cc1cc(Cl)nc2ccc(Cc3ccc4nc(Cl)cc(C)c4c3)cc12`, the TGI was 70.8 µM with ACHN renal; > 100 µM in the experiment with CCRF-CEM leukemia; > 100 µM in the experiment on LOX IMVI melanoma; > 100 µM with NCI-H23 lung; > 100 µM with NCI-H460 lung; > 100 µM in the experiment on NCI/ADR-RES ovarian. The TGI is > 100 µM with SF-268 CNS, 32 µM in the experiment with SF-539 CNS, > 100 µM with SK-MEL-28 melanoma and > 100 µM in the experiment with SW-620 colon.
Take `COc1ccc(/C=C/C(=O)c2c(O)ccc3c(C)c(C(=O)O)oc23)cc1`: the GI50 in the experiment with ACHN renal was > 100 µM; in the experiment with CCRF-CEM leukemia, 40.3 µM; with LOX IMVI melanoma it was 35.6 µM; in the experiment with NCI-H23 lung, 74.2 µM; in the experiment with NCI-H460 lung, 34 µM; with NCI/ADR-RES ovarian it was 61.9 µM. Moreover, the GI50 was 42.3 µM in the experiment on SF-268 CNS, 35.6 µM in the experiment on SF-539 CNS, > 100 µM in the experiment on SK-MEL-28 melanoma and 56.3 µM in the experiment with SW-620 colon. Further, the TGI with ACHN renal, in the experiment on CCRF-CEM leukemia, with LOX IMVI melanoma, with NCI-H23 lung, in the experiment with NCI-H460 lung and with NCI/ADR-RES ovarian was > 100 µM each time. The TGI with SF-268 CNS, in the experiment with SF-539 CNS, with SK-MEL-28 melanoma and with SW-620 colon was > 100 µM in each case.

The record behind these values is PubChem BioAssay (NCI).
